Experimental findings from patent publication US20100093726A1 (Giuseppe CAMPIANI, priority 2007, published 2010) are described below.

Data set [1] is described as follows: Cytotoxicity on Daudi cells. The class given is cell-based. The following applies: human, Daudi cells (human lymphoblastoid cell line); read-out: TC50 (μM) Daudi cells.
The next data set relates to P. falciparum W2. The data set can be described thus: microbe, parasite or virus in culture. Type of data set: cell-based. The settings on record: Plasmodium falciparum, W2, read-out: IC50 (nM) W2. The protocol: (§1) Some of the synthesized compounds were tested in vitro against two different strains of P. falciparum, namely 3D7, NF54 and D10 (CQ-S strain) and K1 and W2 (CQ-R strain).

In another data set the test system is P. falciparum K1. The data set can be described thus: microbe, parasite or virus in culture. Type of data set: cell-based. The following applies: Plasmodium falciparum, K1, read-out: IC50 (nM) K1. The procedure:
as §1

Data set [2] can be described thus: Cytotoxicity on NSO cells. The class given is cell-based. The following applies: mouse, NSO cells (plasmocytoma murine cell line); read-out: TC50 (μM) NSO cells.
The subject of another data set is P. falciparum NF54. The experiment in a line: In vitro antiplasmodial activity, P. falciparum NF54 (CQ-S clone). The settings on record: Plasmodium falciparum, NF54, read-out: IC50 (nM) NF54. The class given is cell-based. The procedure:
as §1

In another data set the test system is P. falciparum D10. The data set can be described thus: In vitro antiplasmodial activity, P. falciparum D10 (CQ-S clone). The following applies: Plasmodium falciparum, D10, read-out: IC50 (nM) D10. Type of data set: cell-based. The protocol:
as §1

Data set [3] can be described thus: Cytotoxicity on normal human lymphocytes. The class given is cell-based. The following applies: normal human lymphocytes PHA-stimulated; read-out: TC50 (μM) Normal human lymphocytes.
Data set [4] concerns Candida parapsilosis ATCC ® 22019. The experiment in a line: Antifungal susceptibility (CLSI broth dilution), Candida parapsilosis. Type of data set: cell-based. The settings on record: CLSI protocol, quality control strain. The source says:
(§2) (1) National Committee for Clinical Laboratory Standards. (2002). Reference method for broth dilution antifungal susceptibility testing of yeasts—Second Edition: Approved Standard, M27-A2. NCCLS, Wayne, Pa.; and
(§3) (2) National Committee for Clinical Laboratory Standards. Reference method for broth dilution antifungal susceptibility testing of filamentous fungi: Approved Standard, M38-A. 2002; NCCLS, Wayne, Pa.
A general note: Dilution methods test growth across graded concentrations, often in twofold steps.

Data set [5] deals with Cryptococcus neoformans MGMI 3. The data set can be described thus: Antifungal susceptibility (CLSI broth dilution), Cryptococcus neoformans. The class given is cell-based. The following applies: CLSI protocol, clinical isolate.
Excerpt: as §2, §3

Data set [6] deals with Aspergillus fumigatus MGMI 5. The experiment in a line: Antifungal susceptibility (CLSI broth dilution), Aspergillus fumigatus MGMI 5 (ITRA resistant). Type of data set: cell-based. The following applies: for antifungal susceptibility value (MIC), Aspergillus fumigatus MGMI 5: CLSI protocol, clinical isolate, itraconazole resistant.
Excerpt: as §2, §3

A further data set relates to Candida albicans MGMI 1. The experiment in a line: Antifungal susceptibility (CLSI broth dilution), Candida albicans. The class given is cell-based. The following applies: CLSI protocol, clinical isolate.
Excerpt: as §2, §3

Data set [7] deals with yeast and filamentous fungi. The experiment in a line: Antifungal activity, overall statement. The class given is cell-based. The following applies: yeast and filamentous fungi of Table 4.
Data set [8] relates to Aspergillus flavus ATCC ® 204304. The data set can be described thus: Antifungal susceptibility (CLSI broth dilution), Aspergillus flavus. Type of data set: cell-based. The following applies: CLSI protocol, reference strain.
Excerpt: as §2, §3

Data set [9] deals with KB cell (human carcinoma of the nasopharynx cell line). The data set can be described thus: Cytotoxicity on KB cells. Type of data set: cell-based.
The test system of a further data set is Candida glabrata MGMI 2. The data set can be described thus: Antifungal susceptibility (CLSI broth dilution), Candida glabrata. The class given is cell-based. The settings on record: CLSI protocol, clinical isolate.
Excerpt: as §2, §3

Data set [10] concerns Candida krusei ATCC ® 6258. The experiment in a line: Antifungal susceptibility (CLSI broth dilution), Candida krusei. The class given is cell-based. The following applies: CLSI protocol, quality control strain.
Excerpt: as §2, §3

Data set [11] deals with Aspergillus fumigatus MGMI 4. The experiment in a line: Antifungal susceptibility (CLSI broth dilution), Aspergillus fumigatus MGMI 4. Type of data set: cell-based. The following applies: CLSI protocol, clinical isolate.
Excerpt: as §2, §3

The test system of the next data set is P. falciparum 3D7. The experiment in a line: In vitro antiplasmodial activity, P. falciparum 3D7 (CQ-S clone). Type of data set: cell-based. The settings on record: Plasmodium falciparum, 3D7, read-out: IC50 (nM) 3D7. The protocol:
as §1

The subject of another data set is P. Chabaudi AS. The data set can be described thus: In vivo activity against P. chabaudi. The settings on record: per os; for P. Chabaudi AS (% inhibition at 50 mg/Kg): single dose of 50 mg/Kg.
In data set [12] the test system is β-hematin formation (hemin). The experiment in a line: BHIA (β-hematin inhibitory activity) assay. Type of data set: biochemical. The settings on record: hemin in dimethyl sulfoxide-acetate buffer at pH 5.0, 37° C., 18 h.
Another data set has as its system P. Berghei ANKA. The experiment in a line: In vivo activity against P. berghei. The following applies: doses up to 100 mg/Kg. The protocol:
The experiment was performed at a single dose of 50 mg/Kg. ED50 was determined for 9a in P. berghei ANKA. All compounds were adminstered per os.

Consider `Clc1cccc(C(Nc2ccnc3cc(Cl)ccc23)c2ccc(CN3CCOCC3)cc2)c1` (racemic) [Compound 9b], for which the results for the CC50 in [1], in data set [2] and in [3] were 43.9 µM, 44.7 µM and 40.8 µM, respectively. Also, the IC50 (as a rule, the concentration that gives 50% inhibition) amounted to 220 nM in the data set with P. falciparum W2, 259 nM with P. falciparum K1, 155 nM in the data set with P. falciparum NF54 and 142 nM in the data set with P. falciparum D10.
`Clc1ccc(C(Nc2ccnc3cc(Cl)ccc23)c2ccc(CN3CCCC3)cc2)cc1` (racemic) [Compound 9e]: the values for the CC50 in [1], in data set [2] and in data set [3] were 8.65 µM, 8.65 µM and 17.3 µM, respectively. Further, the “antifungal susceptibility value (MIC), Candida parapsilosis ATCC 22019” value in data set [4] amounted to 16. Further, in data set [5], the “antifungal susceptibility value (MIC), Cryptococcus neoformans MGMI 3” value worked out at 16. Moreover, the “antifungal susceptibility value (MIC), Aspergillus fumigatus MGMI 5” value in data set [6] is on record as above 32. In addition, in the data set with Candida albicans MGMI 1, the “antifungal susceptibility value (MIC), Candida albicans MGMI 1” value is above 32. In addition, the “anti-fungal activity (in words)” value in data set [7] is reported as “lack of anti-fungal activity”. Moreover, in data set [8], the “antifungal susceptibility value (MIC), Aspergillus flavus ATCC 204304” value is reported as above 32. In addition, the “TC50 (μM) KB cell” value in data set [9] came to 19.61 µM. For the same molecule, the IC50 in the data set on P. falciparum W2 is 72.1 nM; in the data set with P. falciparum K1 it was 9 nM; with P. falciparum NF54 it was 15 nM; in the data set on P. falciparum 3D7 it was 3.7 nM; with P. falciparum D10, 45.8 nM. In the data set with Candida glabrata MGMI 2, the “antifungal susceptibility value (MIC), Candida glabrata MGMI 2” value is reported as above 32. Further, the “antifungal susceptibility value (MIC), Candida krusei ATCC 6258” value in data set [10] was above 32. For the same molecule, the “antifungal susceptibility value (MIC), Aspergillus fumigatus MGMI 4” value in [11] is above 32. In addition, in the data set with P. Chabaudi AS, the “P. Chabaudi AS (% inhibition at 50 mg/Kg)” value is 99.5%.
With `FC(F)(F)c1ccc2c(NC(c3cccc(Cl)c3)c3ccc(CN4CCOCC4)c(Cl)c3)ccnc2c1` (racemic) [Compound 9j], the results for the IC50 in the data set on P. falciparum K1 and in the data set on P. falciparum NF54 were 375 nM and 163 nM, respectively.
Regarding `FC(F)(F)c1ccc2c(NC(c3ccc(Cl)cc3)c3ccc(CN4CCCC4)cc3)ccnc2c1` (racemic) [Compound 9k], the CC50 in data set [1] was found to be 14.1 µM; in data set [2], 12.1 µM; in [3], 24.2 µM. For the same molecule, the “antifungal susceptibility value (MIC), Candida parapsilosis ATCC 22019” value in data set [4] stood at 16. Moreover, the “antifungal susceptibility value (MIC), Cryptococcus neoformans MGMI 3” value in data set [5] came to 16. Besides, the “antifungal susceptibility value (MIC), Aspergillus fumigatus MGMI 5” value in [6] was above 32. In the data set with Candida albicans MGMI 1, the “antifungal susceptibility value (MIC), Candida albicans MGMI 1” value was found to be 16. For the same molecule, the “anti-fungal activity (in words)” value in data set [7] was “lack of anti-fungal activity”. Further, the “antifungal susceptibility value (MIC), Aspergillus flavus ATCC 204304” value in data set [8] was above 32. The “TC50 (μM) KB cell” value in data set [9] was found to be 5.49 µM. In addition, the IC50 in the data set on P. falciparum W2 was 90.5 nM; with P. falciparum K1, 30 nM; in the data set on P. falciparum NF54, 20 nM; with P. falciparum 3D7, 0.2 nM; in the data set on P. falciparum D10, 61.5 nM. Besides, in the data set with Candida glabrata MGMI 2, the “antifungal susceptibility value (MIC), Candida glabrata MGMI 2” value is reported as above 32. Besides, the “antifungal susceptibility value (MIC), Candida krusei ATCC 6258” value in [10] is above 32. Besides, the “antifungal susceptibility value (MIC), Aspergillus fumigatus MGMI 4” value in data set [11] is above 32. In the data set with P. Chabaudi AS, the “P. Chabaudi AS (% inhibition at 50 mg/Kg)” value is given as 99.6%.
Regarding `Clc1ccc(C(Nc2ccnc3cc(Cl)ccc23)(c2ccccc2)c2ccc(CN3CCCC3)cc2)cc1` (racemic) [Compound 15a], the CC50 in [1] came out at 16.7 µM; in [2], 14.9 µM; in [3], 18.6 µM. Also, the IC50 with P. falciparum K1 worked out at 22 nM; in the data set on P. falciparum 3D7, 3 nM. For the same molecule, the “P. Chabaudi AS (% inhibition at 50 mg/Kg)” value in the data set with P. Chabaudi AS is 99.9%.
On to `CCN(CC)Cc1cc(Nc2ccnc3cc(Cl)ccc23)ccc1O` [Amodiaquine], for which the “β-hematin inhibitory activity IC50” value in data set [12] is 0.79 ± 0.01 Molar equivalents of compound relative to hemin.
Turning to `Clc1ccccc1C(c1ccccc1)(c1ccccc1)n1ccnc1` [CLT, clotrimazole, reference compound], in data set [4], the antifungal susceptibility value (MIC), Candida parapsilosis ATCC 22019 worked out at 2 µg/mL. In data set [5], the antifungal susceptibility value (MIC), Cryptococcus neoformans MGMI 3 amounted to 2 µg/mL. Further, the antifungal susceptibility value (MIC), Aspergillus fumigatus MGMI 5 in data set [6] turned out to be 4 µg/mL. This molecule had an antifungal susceptibility value (MIC), Candida albicans MGMI 1 in the data set on Candida albicans MGMI 1 of 0.03 µg/mL. For the same molecule, in the data set with P. Berghei ANKA, the “activity against P. berghei in vivo” value is “not active”. In data set [8], this molecule returned an antifungal susceptibility value (MIC), Aspergillus flavus ATCC 204304 of 4 µg/mL. Besides, the “TC50 (μM) KB cell” value in [9] stood at 88.1 µM. Besides, the antifungal susceptibility value (MIC), Aspergillus fumigatus MGMI 4 in data set [11] amounted to 4 µg/mL. For the same molecule, the “P. Chabaudi AS (% inhibition at 50 mg/Kg)” value in the data set with P. Chabaudi AS came out at 6.0%.
On to `CCN(CC)CCCC(C)Nc1ccnc2cc(Cl)ccc12` (centres unmarked) [CQ, chloroquine, reference compound], for which the “TC50 (μM) KB cell” value in data set [9] is 207.0 µM. Also, the IC50 in the data set with P. falciparum W2 worked out at 280 nM; with P. falciparum K1, 260 nM; in the data set on P. falciparum NF54, 7 nM; in the data set with P. falciparum 3D7 it was 10 nM; in the data set with P. falciparum D10, 22 nM. Besides, the “β-hematin inhibitory activity IC50” value in data set [12] is listed as 0.91 ± 0.23 Molar equivalents of compound relative to hemin. The “P. Chabaudi AS (% inhibition)” value with P. Chabaudi AS (10 mg/Kg) is recorded as 100 (10 mg/Kg) %.
Take `CCC(C)n1ncn(-c2ccc(N3CCN(c4ccc(OCC5COC(Cn6cncn6)(c6ccc(Cl)cc6Cl)O5)cc4)CC3)cc2)c1=O` (centres unmarked) [ITRA, itraconazole, reference compound]: the antifungal susceptibility value (MIC), Candida parapsilosis ATCC 22019 in data set [4] was 0.125 µg/mL. The molecule also came in with an antifungal susceptibility value (MIC), Cryptococcus neoformans MGMI 3 in data set [5] of 0.25 µg/mL. The MIC (as a rule, the smallest concentration in the dilution series that meets the test's criterion for growth inhibition) in data set [6] (Aspergillus fumigatus, MGMI5, strain description in text, itraconazole resistant isolate) was above 16 µg/mL. In [6], this molecule came in with an antifungal susceptibility value (MIC), Aspergillus fumigatus MGMI 5 above 32 µg/mL. In the data set on Candida albicans MGMI 1, this molecule gave an antifungal susceptibility value (MIC), Candida albicans MGMI 1 of 0.25 µg/mL. The molecule further showed an antifungal susceptibility value (MIC), Aspergillus flavus ATCC 204304 in data set [8] of 0.06 µg/mL. This molecule came in with an antifungal susceptibility value (MIC), Candida glabrata MGMI 2 in the data set with Candida glabrata MGMI 2 of 32 µg/mL. Besides, the antifungal susceptibility value (MIC), Candida krusei ATCC 6258 in data set [10] worked out at 0.25 µg/mL. In addition, the antifungal susceptibility value (MIC), Aspergillus fumigatus MGMI 4 in [11] was found to be 0.06 µg/mL.
